In US5292757A, “1,4-dihydropyridine compounds useful as reverse resistance agents” (Ajinomoto Company, Inc., priority 1991, dated 1994):
Converted amounts (≈) assume the structure as drawn. Structures can show the parent of a compound that is named as a salt.

Key:
[1] = test system: Vincristine-resistant mouse P388 leukemia cells; experiment: Test of effect on overcoming anti-cancer drug resistance (growth inhibition by vincristine, MTT method); format: cell-based
Method: Vincristine-resistant mouse P388 leukemia cells were used as an example of resistant cancer cells. RPMI-1640 medium containing 5 μM of 2-mercaptoethanol and 10% fetal calf serum was used for incubation.
The cells were inoculated on a 96-well microplate in 1×10^4 /50 μl/well and 25 μl each of vincristine solution having a specific concentration and an aqeous solution of the test compound (4 μg/ml) was added thereto. After culturing at 37° C. for 2 days, the viable cells were counted by the MTT method and a dose-response curve of vincristine was prepared. Based on the curve, the concentration (IC50) of vincristine producing a 50% inhibition of growth was determined.

colon 26 cells = experiment: Regression of tumor in colon 26 bearing mice in combination with adriamycin; format: in vivo, mouse (CDF1); conditions: for reducing tumor weight: in combination with adriamycin
Method: 20 mg of colon 26 cells were transplanted subcutaneously to CDF1 mice (6 weeks old, female) on day 0. On day 6 the diameter of the tumor was measured and groups of 5 mice were selected having equal average tumor size. On day 7 and 14, 10 mg/kg of adriamycin was injected i.v. and the tested compounds were administered p.o. at 0, 8, 24, 32 hours after the injection of adriamycin. Adriamycin was dissolved in saline to a concentration of 2 mg/ml and the compounds in Example 61 and 62 were dissolved in saline to a concentration of 50 mg/ml. The diameter of the tumor was measured each week and tumor weight was estimated as follows: [formula] (L:long diameter, S:short diameter, mm)

[2] = compound dose 250 mg p.o. with adriamycin 10 mg/kg i.v., hydrochloride
[3] = compound dose 500 mg p.o. with adriamycin 10 mg/kg i.v., hydrochloride

Structure (SMILES): CC[C@]1(O)C[C@H]2CN(CCc3c([nH]c4ccccc34)[C@@](C(=O)OC)(c3cc4c(cc3OC)N(C=O)[C@H]3[C@@](O)(C(=O)OC)[C@H](OC(C)=O)[C@]5(CC)C=CCN6CC[C@]43[C@@H]65)C2)C1 [vincristine, reference compound]
- IC50 ([1]; Mus musculus, P388, 48 h, read-out: IC50 of vincristine alone): 0.05 to 0.1 µg/mL (≈ 0.0606 to 0.121 µM)

Structure (SMILES): COc1cccc2c1C(=O)c1c(O)c3c(c(O)c1C2=O)C[C@@](O)(C(=O)CO)C[C@@H]3O[C@H]1C[C@H](N)[C@H](O)[C@H](C)O1 [Adriamycin, reference compound]
- tumor weight (colon 26 cells; adriamycin 10 mg/kg i.v. alone, no test compound (untreated 4.5 g)): 2.7 g

Structure (SMILES): COC(=O)C1=C(C)N(CCCc2ccccc2)C(C)=C(C(=O)OCCCN2CCN(CC(C)C)CC2)C1c1ccc(OC)c(OC)c1 (stereo not drawn) [Example 3, 1,4-dihydro-4-(3,4-dimethoxyphenyl)-2,6-dimethyl-1-(3-phenylpropyl)-3,5-pyridinedicarboxylic acid 3-methyl-5-[3-(4-isobutylpiperazino)propyl]ester]
- IC50 (concentration of vincristine producing a 50% inhibition of growth in the presence of the compound) ([1]; vincristine IC50, test compound present at 1 μg/ml, 37° C., 2 days, MTT): 0.0015 µg/mL

Structure (SMILES): COC(=O)C1=C(C)N(CCCc2ccccc2)C(C)=C(C(=O)OCCCc2cccnc2)C1c1ccc(OC)c(OC)c1 (single isomer, unassigned; (+)) [Example 61, (+)-1,4-dihydro-4-(3,4-dimethoxyphenyl)-2,6-dimethyl-1-(3-phenylpropyl)-3,5-pyridinedicarboxylic acid 3-methyl-5-[3-(3-pyridyl)propyl] ester hydrochloride]
- tumor weight (colon 26 cells; [2]): 2.2 g
- tumor weight (colon 26 cells; [3]): 2 g
- reducing tumor weight (colon 26 cells): effective in reducing tumor weight in combination with adriamycin

Structure (SMILES): COC(=O)C1=C(C)N(CCCc2ccccc2)C(C)=C(C(=O)OCCCc2cccnc2)C1c1ccc(OC)c(OC)c1 (single isomer, unassigned; (-)) [Example 62, (-)-1,4-dihydro-4-(3,4-dimethoxyphenyl)-2,6-dimethyl-1-(3-phenylpropyl-3,5-pyridinedicarboxylic acid 3-methyl-5-[3-(3-pyridyl)propyl]ester hydrochloride]
- tumor weight (colon 26 cells; [2]): 1.8 g
- tumor weight (colon 26 cells; [3]): 1.1 g
- reducing tumor weight (colon 26 cells): effective in reducing tumor weight in combination with adriamycin
